This assay concerns HiNGT, EcNGT, ApNGT and ApNGT^Q469A. The assay is classed as biochemical.

On to WGNWS, for which the “differential sequence preference in regard to N-glycosylation: which NGT modifies the sequence” value was “for EcNGT but not for HiNGT”.
